Results taken from the supplement of paper PMC5908809.

How the values were obtained:
[1] = tested on: IMC-1 (IL-2 20 ng/mL); experiment: percent inhibition of viability; higher = more inhibition; details: 72 h
[2] = tested on: normal primary NK cells, pool 3 (3 donors) (IL-2 2.5 ng/mL); experiment: as above; details: 72 h
[3] = tested on: NKL (IL-2 2.5 ng/mL); experiment: as above; details: 72 h
[4] = tested on: SNK-6 (IL-2 2.5 ng/mL); experiment: as above; details: 72 h
[5] = tested on: KAI3 (IL-2 2.5 ng/mL); experiment: as above; details: 72 h
[6] = tested on: normal primary NK cells, pool 2 (3 donors) (IL-2 2.5 ng/mL); experiment: as above; details: 72 h
[7] = tested on: normal primary NK cells, pool 1 (3 donors), resting (IL-2 0 ng/mL); experiment: as above; details: 72 h
[8] = tested on: NK-YS (IL-2 2.5 ng/mL); experiment: as above; details: 72 h
[9] = tested on: YT (IL-2 2.5 ng/mL); experiment: as above; details: 72 h
[10] = tested on: normal primary NK cells, pool 1 (3 donors) (IL-2 2.5 ng/mL); experiment: as above; details: 72 h
[11] = tested on: DERL-7 (IL-2 2.5 ng/mL); experiment: as above; details: 72 h
[12] = tested on: KHYG-1 (IL-2 2.5 ng/mL); experiment: as above; details: 72 h
[13] = tested on: NK-92 (IL-2 2.5 ng/mL); experiment: as above; details: 72 h
[14] = tested on: normal NK cells expanded with K562-aAPC; experiment: drug sensitivity score (DSS) (DSS units); higher = more sensitive; extreme values may be limits of the assay; details: 72 h; IL-2 2.5 ng/mL
Description: (§1)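 Drug sensitivity and resistance testing on K562-aAPC-expanded normal NK cells: 5 concentrations (10-fold steps over a 10,000-fold range), 72 h at 37 °C, viability by CellTiter-Glo normalised to DMSO and benzethonium chloride controls; DSS from the fitted curve.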

[15] = tested on: normal NK cells expanded with K562-aAPC; experiment: percent inhibition of viability; higher = more inhibition; details: 72 h, IL-2 2.5 ng/mL
Description: as §1

[16] = tested on: IMC-1 (IL-2 20 ng/mL); experiment: drug sensitivity score (DSS) (DSS units); higher = more sensitive; extreme values may be limits of the assay; details: 72 h
[17] = tested on: normal primary NK cells, pool 3 (3 donors) (IL-2 2.5 ng/mL); experiment: as above; details: 72 h
[18] = tested on: NKL (IL-2 2.5 ng/mL); experiment: as above; details: 72 h
[19] = tested on: SNK-6 (IL-2 2.5 ng/mL); experiment: as above; details: 72 h
[20] = tested on: KAI3 (IL-2 2.5 ng/mL); experiment: as above; details: 72 h
[21] = tested on: normal primary NK cells, pool 2 (3 donors) (IL-2 2.5 ng/mL); experiment: as above; details: 72 h
[22] = tested on: normal primary NK cells, pool 1 (3 donors), resting (IL-2 0 ng/mL); experiment: as above; details: 72 h
[23] = tested on: NK-YS (IL-2 2.5 ng/mL); experiment: as above; details: 72 h
[24] = tested on: YT (IL-2 2.5 ng/mL); experiment: as above; details: 72 h
[25] = tested on: normal primary NK cells, pool 1 (3 donors) (IL-2 2.5 ng/mL); experiment: as above; details: 72 h
[26] = tested on: DERL-7 (IL-2 2.5 ng/mL); experiment: as above; details: 72 h
[27] = tested on: KHYG-1 (IL-2 2.5 ng/mL); experiment: as above; details: 72 h
[28] = tested on: NK-92 (IL-2 2.5 ng/mL); experiment: as above; details: 72 h

CN1CCN(c2ccc3nc(-c4c(N)c5c(F)cccc5[nH]c4=O)[nH]c3c2)CC1 [Dovitinib] (max concentration tested 10000 nM)
percent inhibition of viability [%]
Details	1 nM	10 nM	100 nM	1000 nM	10000 nM
[1]	-9.28	-4.03	-5.76	-6.55	-7.61
[2]	-13.4	-9.6	-2.56	-3.69	18.9
[3]	-10	-6.08	-3.28	8.58	51.6
[4]	-4.17	-5.09	-18.2	-14	-35.3
[5]	2.03	-0.28	0.82	4.98	25.2
[6]	-7.55	-5.64	-7.93	-6.84	19.6
[7]	-23.8	-2.86	19.4	10.6	53.9
[8]	-1.41	-0.72	1.54	8.71	13.5
[9]	1.17	0.22	2.9	5.68	1.67
[10]	-15.6	-11.3	-2.48	-5.56	9.92
[11]	-0.26	-2.47	-0.75	1.93	19.1
[12]	-5.15	-3.54	0.13	3.06	2.7
[13]	-5.95	-5.28	-3.15	-3.74	0.3
[15]	-2.16	-2.71	2.91	-0.42	3.96

Details	drug sensitivity score
[14]	0
[16]	0
[17]	0.36
[18]	4.18
[19]	0
[20]	1.71
[21]	0.35
[22]	4.36
[23]	0.43
[24]	0
[25]	0
[26]	0.77
[27]	0
[28]	0

CCOc1ccn(-c2ccc(F)cc2)c(=O)c1C(=O)Nc1ccc(Oc2ccnc(N)c2Cl)c(F)c1 (max concentration tested 2500 nM)
percent inhibition of viability [%]
Details	0.25 nM	2.5 nM	25 nM	250 nM	2500 nM
[1]	1.35	4.61	9.25	10.7	18.1
[2]	-11.7	1.36	-4.15	-4.08	-3.34
[3]	-8.21	-0.56	-2.88	6.9	-2.79
[4]	22.9	33.8	31.2	18.3	22.9
[5]	-2.82	-5.11	1.22	-8.32	20.1
[6]	-3.75	2.69	-0.75	-6	3.09
[7]	1.56	-12.4	-1.07	-26.3	-16.3
[8]	2.13	-0.09	0.55	-3.25	13.2
[9]	2.07	4.23	5.47	0.52	37
[10]	0.3	-5.73	-0.6	-11.2	-8.87
[11]	0.56	6.06	-1.35	-3.94	-13.7
[12]	2.8	3.63	7.75	3.92	7.23
[13]	3.4	-2.02	21.5	-9.18	16.5
[15]	2.01	1.6	-0.61	0.57	7.12

Details	drug sensitivity score
[14]	0
[16]	1.25
[17]	0
[18]	0
[19]	0.23
[20]	0.35
[21]	0
[22]	0
[23]	0.06
[24]	1.85
[25]	0
[26]	0
[27]	0
[28]	0.14
